Test results taken from patent publication US20180201594A1, “Compound pac-1 or salt thereof and pharmaceutical composition comprising same” (priority 2015, published 2018).
Marks after values point to notes of the source that are not given here.

Key:
[1] = tested on: HGC-27, K562/A02, A549, HT-1080 cells; experiment: Tumor cell proliferation (MTT or CCK-8); format: cell-based, human; settings: 48 h, FIG. 5-8
Text: Experimental cells: gastric cancer cell line HGC-27, non-small cell lung cancer A549, human chronic myeloid leukemia cells doxorubicin resistant strains K562/A02, human fibrosarcoma HT-1080, human chronic myeloid leukemia cell K562.
Experimental materials: PAC-1 needle crystal (prepared according to the method described in Quinn P. Peterson et al., J. Med. Chem. 2009, 52, 5721-5731), MTT solution (Amresco specification: 1 g, batch number: 2035B358), DMSO (Analytical Pure, Beijing Chemical Factory), 96-well plates (Corning), CCK-8 (Japanese Tongren Chemical Research Institute, specification: 500test, batch number: DJ706), fetal bovine serum was the product from the United States GIBCO, batch number: 608759, RPMI-1640 is the product of Hyclone, batch number: NWK0492, 0.25% Trypsin-EDTA is the product from the United States GIBCO company, batch number: 10T774768, DMSO: USA Sigma Corporation.
The cells in logarithmic growth phase were collected. The cells was digested and the cell density was adjusted into 1-5×10^5 cells/mL, 100 μL per well in 96-well culture plate. The plated was cultured in a incubator with 37 ? , 5% CO2 saturated humidity. After adherent, different concentrations of PAC-1 and ZYS-1 were added for dosing groups. 6 dosage groups were set, with at least three parallel wells set in each group. […]

[2] = tested on: HGC-27 cells; experiment: Two-dimensional migration (cell scratch assay); format: cell-based; settings: n = 3
Description: HGC-27 cells in logarithmic growth phase were collected. The cell with density of 5×10^5 cells/mL was spread onto 24-well plates (0.5 mL per well). RMPI-1640 culture medium with 10% fetal bovine serum was added and cultured for 24 h to form monolayer cells. The monolayer cells were scratched in a line by 20 μL pipette gun tip, which was washed with PBS three times. Then, drug-containing media with 2% fetal bovine serum s were added, which concentrations were 2 μM, 4 μM, respectively. The media were cultured in the incubator with 37 ? , 5% CO2 saturated humidity. Sampled at 0, 4, 8, 12 h and took the pictures. The area where cells were migrated from scratch edge to scratch within the same field was counted by software.

[3] = tested on: HUVECs; experiment: HUVEC viability (MTT method); format: cell-based; settings: Homo sapiens, 48 h
Description: Test Methods: The effect of ZYS-1 on the viability of HUVECs was determined by MTT method. The HUVECs in logarithmic growth phase were taken and digested with 0.25% trypsin, centrifuged and resuspended in ECM complete medium to formulate into […] single cell suspension. The cells were seeded in 96-well culture plates at a density of 1×10^4 cells/well, with a volume of 100 μL per well. They were placed and cultured in the incubator with 37®, 5% CO2. After culturing 24 h, […] different concentrations of ZYS-1 solution were added to obtain the final concentrations of drugs at 0.1, 0.5, 1, 5, 10, 50 and 100 μM. Meanwhile, the positive control group was set as etoposide at a final concentration of 10 μM, and the negative control was an equal amount of 0.1% DMSO solution. Each concentration of the experimental groups and the control groups all were set five replicates, with 100 μL of drugs per well. The blank control group is additionally set as 200 μL complete medium. The cells were placed and cultured in the incubator with 37 m, 5% CO2. After culturing for 48 h, 20 μL MTT solution (5 mg/mL) was added to each well, which was continued to be cultured for another 4 h. […] The light absorbance value of each well was measured by enzyme-linked immunosorbent assay. The measured wavelength was 570 nm and the result was recorded. […]

[4] = tested on: Caspase-3; experiment: Caspase-3 protein expression in HGC-27 cells (immunofluorescence); format: cell-based; settings: n = 6
Description: (§1) The sterilized cell transfer membrane was taken and placed into a 24-well plate, which was seeded with 1 mL (1×10^5 cells/mL) cell suspension, and cultured for 24 h. Drug-containing medium was added, The negative control groups and administration groups were set, with the experimental groups intervened for 24-48 h. The plate was washed with PBS, and fixed with 4% paraformaldehyde for 15 min. It was treated with 0.1% TritonX-100, and washed with PBS, blocked with 1:10 diluted normal serum blocking solution for 15 min. The plate was added 1:100 diluted primary antibody, placed at 4° C. overnight. The plate was washed with PBS, to which 1:100 diluted secondary antibodies was added and incubated at room temperature for 30 min. The plate was washed with PBS, to which 1:100 diluted SABC-FITC was added, and re-incubated at room temperature for additional 30 min. The unbound FITC was washed with PBS. We observed and taken pictures under fluorescence microscope, and analyzed the fluorescence intensity by Bioflux Montage software. 6 fields were selected randomly under microscope for each group and the integral optical density value of cells was calculated.

[5] = tested on: VEGF; experiment: VEGF protein expression in HGC-27 cells (immunofluorescence); format: cell-based; settings: n = 6
Description: as §1

With `C=CCc1cccc(/C=N/NC(=O)CN2CCN(Cc3ccccc3)CC2)c1O` [ZYS-1, 1-Piperazineacetic acid, 4-(phenylmethyl)-2-[[2-hydroxy-3-(2-propen-1-yl)phenyl]methylene]] the “antitumor efficacy (cell proliferation) compared with PAC-1 needle crystal” value [1] was “stronger antitumor efficacy than PAC-1 needle crystal”, the “area of cell migration into scratch” value ([2]; 2 μM, 4 h) was 0.12 ± 0.01 mm^2 and the “area of cell migration into scratch” value ([2]; 2 μM, 8 h) was 0.16 ± 0.02 mm^2. For the same compound, the “area of cell migration into scratch” value ([2]; 2 μM, 12 h) was 0.20 ± 0.02 mm^2, the “area of cell migration into scratch” value ([2]; 4 μM, 4 h) was 0.04 ± 0.01* mm^2 and the “area of cell migration into scratch” value ([2]; 4 μM, 8 h) was 0.07 ± 0.01* mm^2. The “area of cell migration into scratch” value ([2]; 4 μM, 12 h) was 0.08 ± 0.02** mm^2, the IC50 [3] was 2540 nM and the “Caspase-3 protein expression (integral optical density value)” value ([4]; 4 μM) was 37.26 ± 0.39. The “Caspase-3 protein expression (integral optical density value)” value ([4]; 8 μM) was 39.36 ± 1.20, the “VEGF protein expression (integral optical density value)” value ([5]; 4 μM) was 31.17 ± 0.24 and the “VEGF protein expression (integral optical density value)” value ([5]; 8 μM) was 30.51 ± 0.32.
